The term melting point denotes the temperature of the solid-liquid transition. `O=[N+]([O-])c1ccc2c(C3CCN(C[C@H](O)COc4cccc5[nH]ccc45)CC3)c[nH]c2c1` displayed a melting point of 212 to 214 °C.

For the compound `CN(c1cccnc1S(N)(=O)=O)S(=O)(=O)CF`, the melting point lay within 160 to 162 °C. Next, `O=C(Nc1ccc(Cl)c(C(F)(F)F)c1)c1ccccc1`: 130 to 131 °C; `Cc1cc(C=O)c2cccc(OCc3ccccc3)c2n1`: 129 °C; `Cc1cc2c(cnn2-c2c(Cl)cc(C(F)(F)F)cc2Cl)nc1C`: 135 to 136 °C.

Regarding `Cc1oc(-c2ccccc2)nc1CCC(=O)c1ccc(CC2SC(=O)NC2=O)cc1` (configuration not stated), the melting point fell in the range of 145 to 146 °C. `CCCCc1ccc(-c2ccc3c(c2)CC[C@H]2N(C)C(=O)CC[C@]32C)cc1` showed a melting point of 102 to 108 °C.

The compound `C=CCOc1nc(N(CC=C)CC=C)nc(N2CCc3ccccc3CC2)c1C#N` returned a melting point of 126 to 130 °C. The compound `COc1c(C)c(C)c(OC)c(C(CCCC(=O)O)c2ccccc2)c1C` (configuration not stated) displayed a melting point of 142 to 143 °C. As for `CCCCCN(C(=O)Nc1ccc(C(=O)O)cc1)c1ccc2c(c1)C(C)(C)CCC2(C)C`, the figure is 184 to 186 °C; as for `COc1ccc2c(c1)N(C)C(=S)C2`, 135 to 136 °C. As for `Cc1ccc(CNc2ccc(Cl)cc2Cl)c(C)c1`, the figure is 88 to 90 °C; as for `O[C@@H]1CN(Cc2ccccc2)C[C@H]1Oc1ccc(OCc2ccccc2)cc1` (relative stereo), 98 to 100 °C. `CCCC(C)(C)c1nsc(N=CN(C)C)c1C#N` returned a melting point of 65 to 67 °C. Turning to `Nc1cc(Sc2ccc3c(C(=O)O)cccc3c2)ncn1`, the melting point lay in the range of 264 to 266 °C. Next, `CC(O)=C(C#N)C(=O)Nc1ccc(Cl)cc1`: 209 to 211 °C; `CCCCc1nc2cccc(C(=O)OC)c2n1Cc1ccc(-c2ccccc2C#N)nc1`: 155 to 156 °C. Next, `CCc1ccc(-c2ncccc2S(=O)(=O)Nc2ncc(C)nc2OC)cc1`: 73 °C; `O=Cc1c2ccccc2c(C=O)c2ccccc12`: 224 to 245 °C; `Cc1ccc(-n2nc(C)cc2-c2ccnc(Cl)c2)cc1`: 100 °C. As for `CC(C)n1c(SC(F)(F)C(F)F)nc(-c2ccc(F)cc2)c1-c1ccc(F)cc1`, the figure is 94 to 103 °C. Regarding `CN(Cc1ccccc1)CC1CNC(=O)c2cccc3[nH]cc1c23` (configuration not stated), the melting point fell in the range of 191 to 193 °C. As for `COc1ccc(-c2ocnc2-c2cc(OC)c([N+](=O)[O-])c(OC)c2)cc1O`, the figure is 186 to 188 °C; as for `Cc1cc(-c2ccccc2)c(=O)n2c1-c1sccc1CC2`, 80.5 to 81 °C; as for `O=C(O)C1CSC(C2CCCCC2)N1` (mixture of isomers), 248 °C. As for `Nc1nc(Cl)nc2c1ncn2COCCO`, the figure is 188 to 190 °C; as for `CN(C)CCCC(C#N)(c1ccc(Cl)cc1)c1ccc(-n2ncc(=O)[nH]c2=O)cc1Cl` (configuration not stated), 140 °C. Next, `CC(C)CCCC(C)C1CCC2C3CC=C4CC(OCCCCCCSC5OCC(O)C(O)C5O)CCC4(C)C3CCC12C` (configuration not stated): 115 °C; `COc1cccc2c1CC(=O)CO2`: 53 to 54 °C; `CCCCCCCCCCCCCCCCNc1ccc(C(=O)OCC(C)O)cc1` (configuration not stated): 91 to 93 °C. Take `Cc1ccc(-c2cc(-c3ccccc3)n[nH]2)cc1`: the melting point came to 175 °C. Next, `CC(C)C(NC(=O)Cn1cc(Cc2ccc(C(F)(F)F)cc2)cc(NC(=O)OCc2ccccc2)c1=O)C(=O)C(F)(F)F` (configuration not stated): 61 to 65 °C; `COc1cc2ncnc(N3CCN(C(=S)Nc4cccc(C(C)C)c4)CC3)c2cc1OC`: 169 to 171 °C; `CCC(C)c1cc(Cl)cc(Cl)c1OCC(=O)NCCCCNC(=O)OC(C)(C)C` (configuration not stated): 50 °C.

Compound `CCOC1=CC2=CCC3C(CCC4(C)C3CCC4(C)C(C)=O)C2(C)CC1` (configuration not stated) had a melting point of 114 to 116 °C.

Compound `Cc1cc(Br)cnc1CCCCNC1=NS(=O)N=C1NCc1cccnc1` (configuration not stated) returned a melting point of 179 to 180 °C. As for `COc1ccc(S(=O)(=O)Nc2ccccc2Nc2cccc(O)c2)cc1`, the figure is 165 to 166 °C. Next, `CC(CCC(F)(F)C(C)(C)O)C1CCC2C3CCC4CC(O)CCC4(C)C3CCC12C` (configuration not stated): 142 °C; `CC(=O)N(Cc1nc(-c2ccccc2)c(-c2ccccc2)o1)c1cccc(OCC(=O)O)c1`: 75 to 80 °C. Next, `CN1CCN(CCCN2c3ccc(F)cc3Sc3ccc(S(=O)(=O)N(C)C)cc32)CC1`: 166 to 169 °C; `CC(C)Oc1cc(CCC(=O)NS(=O)(=O)C2CCCCC2)n(Cc2ccc(Cl)cc2Cl)n1`: 137 to 138 °C; `Nc1nc(Cl)cc(OCC(O)CO)n1` (configuration not stated): 175 to 177 °C. As for `Cc1nc(NC(=O)c2ccccc2)sc1C(=O)NCc1ccc(F)cc1`, the melting point lay in the range of 206 to 208 °C. In turn, `CC(C)(C)C(=O)Nc1cc(OCc2ccccc2)c(OCc2ccccc2)cc1N` showed a melting point of 115 °C. As for `Cc1c(-c2ccccc2)n[nH]c1OCN1CCCC1`, the figure is 88 °C; as for `O=C(O)CCc1oc(SCc2ccccn2)nc1-c1ccc(Cl)cc1`, 125 to 126 °C; as for `COc1cc(COc2ncccc2CC#N)ccc1OCc1nc(-c2ccccc2)oc1C`, 108 to 109 °C. As to `CC(C)(C)C1=CC(=Nc2ccc(CCC(=O)O)cc2)C=C(C(C)(C)C)C1=O`, the melting point fell in the range of 165 to 167 °C.

For the compound `CCOC(=O)c1ccc(-c2cccc(O)c2)c(C(C)(C)C)c1`, the melting point was in the range of 118 to 120 °C. Next, `CC(C)(Sc1nc(N)cc(Cl)n1)c1ccccn1`: 183 to 184 °C; `CCCCCCCCCCCCCCCCCCNC(=O)SCC(CO)OC` (configuration not stated): 62 to 63 °C. As for `COC(=O)c1ccc2sc3ccccc3c2c1`, the figure is 127 to 129 °C. As for `Cc1sc(C=O)c(C)c1C`, the figure is 45 to 46 °C. In turn, `CCCN(CCC)c1ccc2nc3c4ccccc4c(=Nc4ccncc4)cc-3oc2c1` had a melting point of 215 to 216 °C.

`Clc1ccc2c(Br)ccnc2c1` yielded a melting point of 102 to 103 °C. `CCCc1c(CSc2nnc(SCCCS(=O)CC(=O)O)s2)ccc(C(C)=O)c1O` (configuration not stated) gave a melting point of 107 to 110 °C.

In the case of `N#Cc1ccc(NC2CCN(Cc3cc(F)cc(C(F)(F)F)c3)CC2)nn1`, the melting point was 151 °C. The compound `CCOC(=O)[C@H]1[C@@H]2CC(=O)[C@@](N=[N+]=[N-])(C(=O)OCc3ccccc3)[C@@H]21` displayed a melting point of 46 to 48 °C.

For the compound `O=C1c2ccccc2C(=O)c2c1cccc2N1CCN(CCO)CC1`, the melting point was 140 °C. `CC(C)C1(C)N=C(c2nc3occ([N+](=O)[O-])c3cc2C(=O)O)NC1=O` (configuration not stated) registered a melting point of 220 to 237 °C. As for `CC(C)CCS(=O)(=O)NC(=O)/C=C/c1cc(OCC2CC2)nn1Cc1ccc(C(F)(F)F)cc1Cl`, the figure is 156 to 158 °C. As for `CN(CCOc1ccc(/C=C/CO)cc1F)c1ccccn1`, the melting point fell in the range of 80 to 81 °C.

Consider `CCOC(=O)Cn1c(C(=O)NCc2nnc(C)n2-c2sc(CC)cc2C(=O)c2ccccc2Cl)cc2ccccc21`, for which the melting point was 138 to 140 °C.

In the case of `O=C(Nc1ccc(-n2nc(C(F)(F)F)cc2C(F)(F)F)cc1)c1ccccc1C(F)(F)F`, the melting point lay within 133 to 135 °C. Next, `CCN(CC)Cc1nc2sc3c(c2c(-c2ccc(OC)c(OC)c2)c1Cl)CCN(Cc1ccccc1)C3`: 150 to 151 °C. As for `Cc1c(NC(=O)c2ccc(OCC3CC3)cc2)ccc2cc(CNCC3CCOCC3)[nH]c12`, the figure is 167 to 168 °C. Next, `CCOC(=O)c1cnn(Cc2ccc(OCc3nc(-c4ccccc4)oc3C)cc2)c1`: 108 to 109 °C; `CC(=O)N(C)c1cccc(-c2ccnc3c(C(=O)c4cccs4)cnn23)c1`: 190 to 192 °C; `Cc1ccccc1Cc1c(C)c(NC(=O)CC(C)(C)C)c(C)c2c1OC(C)(C)C2`: 175 to 176 °C. For the compound `CC(C)n1nc(-c2sc(N)nc2-c2cccc(Cl)c2)ccc1=O`, the melting point fell in the range of 236 to 237 °C. Next, `Cc1cc(Br)cc(C)c1OCCO`: 47 to 48 °C; `O=C(NC1N=C(c2ccccc2F)c2ccccc2NC1=O)c1cc2ccccc2[nH]1` (racemic): 290 to 291 °C; `CCOC(=O)c1cccc(NC(=O)N[C@@H]2N=C(c3ccccc3)c3ccccc3N(C)C2=O)c1`: 140 to 142 °C. `C#Cc1ccc(C23OCC(c4ccc(F)c(F)c4)(CO2)CO3)cc1` showed a melting point of 204 to 205 °C. Next, `CC(C)(C)c1ccc(C2OCC(CO)([N+](=O)[O-])CO2)cc1` (configuration not stated): 90 to 92 °C; `Cc1ccc(C2CCN(C(=O)Nc3ccc4cc(CN5CCCC5)cnc4c3)CC2)cc1`: 244 to 246 °C. On to `O=C(O)c1csnc1-c1cc(S)cc(Cl)c1`, for which the melting point was 150 to 160 °C.

Compound `COc1nc(C)cnc1NS(=O)(=O)c1cccnc1-c1ccc(CC(C)CO)cc1` (configuration not stated) returned a melting point of 118 to 119 °C.

As to `CCN1C(=O)C(C)(C)C(=O)N(C)c2cc(OCCCn3cc(-c4ccc(OC)nc4)c(=O)c4ccccc43)ccc21`, the melting point lay within 159 to 161 °C. As for `O=C(O)C=Cc1ccc(CCNS(=O)(=O)c2ccc(Cl)cc2)cc1`, the melting point lay within 85 to 86 °C. `CC(C)CN1CN(C)CN(c2c(Cl)cccc2Cl)C1=S` yielded a melting point of 133 to 135 °C.

For `COCn1ncc2cc(-c3nnc(SCc4cccc(C(F)(F)F)c4)o3)ccc21`, the melting point was in the range of 159 to 160 °C. For the compound `Cc1ccc(S(=O)(=O)OCCCn2c3c(c4ccccc4c2=O)C(=O)c2ccccc2-3)cc1`, the melting point fell in the range of 177 to 179 °C. Next, `O=S(=O)(NCCCCOc1ccc(-n2cnnn2)cc1)c1cccc2nsnc12`: 142 to 143 °C; `CC(O)C(=O)c1ccc(C(=O)Nc2ccccc2N)c(N)c1` (configuration not stated): 198 °C; `c1ccc(CN2CCCC3(C2)OC(c2ccccc2)(c2ccccc2)c2ccccc23)cc1` (configuration not stated): 144 to 146 °C. Next, `Cc1ccc(-c2ccccc2C#N)nc1`: 80 to 81 °C.

Source of the values: a melting point compilation (Tetko et al.; mined from patent text by program, amines drawn as free bases though some values may be those of a salt).
